Laboratory results from the NIST ThermoML archive (doi:10.1021/je400004j).
± gives the expanded uncertainty stated by the source.

Test: xn = mol fraction of the nth substance listed
Details: 298.15 K, Ring tensiometer

| Compound | surface tension liquid-gas (x2 = 0) [mN/m] | surface tension liquid-gas (x1 = 0.1) [mN/m] | surface tension liquid-gas (x1 = 0.2) [mN/m] | surface tension liquid-gas (x1 = 0.3) [mN/m] | surface tension liquid-gas (x1 = 0.4) [mN/m] | surface tension liquid-gas (x1 = 0.5) [mN/m] | surface tension liquid-gas (x1 = 0.6) [mN/m] | surface tension liquid-gas (x1 = 0.7) [mN/m] | surface tension liquid-gas (x1 = 0.8) [mN/m] | surface tension liquid-gas (x1 = 0.9) [mN/m] | surface tension liquid-gas (x1 = 1) [mN/m] | surface tension liquid-gas (x1 = 0.02) [mN/m] | surface tension liquid-gas (x1 = 0.04) [mN/m] | surface tension liquid-gas (x1 = 0.08) [mN/m] | surface tension liquid-gas (x1 = 0.12) [mN/m] | surface tension liquid-gas (x1 = 0.14) [mN/m] |
| --- | --- | --- | --- | --- | --- | --- | --- | --- | --- | --- | --- | --- | --- | --- | --- | --- |
| O [water] + CCCCn1cc[n+](C)c1.COP(=O)([O-])OC | 71.9 ± 0.9 | – | – | – | – | – | – | – | – | – | – | – | – | – | – | – |
| CCn1cc[n+](C)c1.COP(=O)([O-])OC [1-ethyl-3-methylimidazolium dimethylphosphate] + O | – | 48.9 ± 0.69 | 47 ± 0.63 | 46.4 ± 0.62 | 46.2 ± 0.62 | 45.1 ± 0.61 | 44.2 ± 0.6 | 44.1 ± 0.61 | 44.5 ± 0.62 | 44.4 ± 0.62 | 44.3 ± 0.62 | – | – | – | – | – |
| CCCCOP(=O)([O-])OCCCC.CCCCn1cc[n+](C)c1 [1-butyl-3-methylimidazolium dibutyl phosphate] + O | – | 28.2 ± 0.6 | 28.9 ± 0.4 | 29 ± 0.4 | 29.1 ± 0.4 | 29.2 ± 0.4 | 29.3 ± 0.4 | 29.3 ± 0.4 | 29.4 ± 0.4 | 29.5 ± 0.4 | 29.4 ± 0.4 | – | – | – | – | – |
| CCCCn1cc[n+](CC)c1.CCOP(=O)([O-])OCC [1-butyl-3-ethyl-1H-imidazol-3-ium diethyl phosphate] + CO | – | 26.1 ± 0.4 | 28.4 ± 0.4 | 29.8 ± 0.4 | 30.6 ± 0.4 | 30.9 ± 0.4 | 31.1 ± 0.4 | 31.4 ± 0.4 | 32.3 ± 0.5 | 32.2 ± 0.5 | 32.2 ± 0.5 | – | – | – | – | – |
| CCCCn1cc[n+](C)c1.COP(=O)([O-])OC [1-butyl-3-methyl-1H-imidazolium dimethylphosphate] + O | – | 42.1 ± 0.6 | 40.9 ± 0.6 | 40.2 ± 0.5 | 39.4 ± 0.5 | 38.8 ± 0.5 | 38.3 ± 0.5 | 38.2 ± 0.5 | 38 ± 0.5 | 38.1 ± 0.5 | 38 ± 0.5 | – | – | – | – | – |
| CCO [ethanol] + COP(=O)([O-])OC.Cn1cc[n+](C)c1 | 21.9 ± 0.3 | – | – | – | – | – | – | – | – | – | – | – | – | – | – | – |
| CO [methanol] + CCCCn1cc[n+](CC)c1.CCOP(=O)([O-])OCC | 22.4 ± 0.3 | – | – | – | – | – | – | – | – | – | – | – | – | – | – | – |
| CO [methanol] + CCOP(=O)([O-])OCC.CCn1cc[n+](C)c1 | 22.4 ± 0.3 | – | – | – | – | – | – | – | – | – | – | – | – | – | – | – |
| O [water] + CCn1cc[n+](C)c1.COP(=O)([O-])OC | 71.9 ± 0.91 | – | – | – | – | – | – | – | – | – | – | – | – | – | – | – |
| CCCCOP(=O)([O-])OCCCC.CCCCn1cc[n+](C)c1 [1-butyl-3-methylimidazolium dibutyl phosphate] + CO | – | 26.4 ± 0.4 | 27.5 ± 0.4 | 28.1 ± 0.4 | 28.5 ± 0.4 | 28.8 ± 0.4 | 28.9 ± 0.4 | 29.1 ± 0.4 | 29.4 ± 0.4 | 29.5 ± 0.4 | 29.4 ± 0.4 | – | – | – | – | – |
| CCO [ethanol] + CCCCOP(=O)([O-])OCCCC.CCCCn1cc[n+](C)c1 | 21.9 ± 0.3 | – | – | – | – | – | – | – | – | – | – | – | – | – | – | – |
| CCCCn1cc[n+](CC)c1.CCOP(=O)([O-])OCC [1-butyl-3-ethyl-1H-imidazol-3-ium diethyl phosphate] + O | – | 35.9 ± 0.5 | 33.1 ± 0.5 | 32.9 ± 0.5 | 32.8 ± 0.5 | 32.6 ± 0.5 | 32.5 ± 0.5 | 32.3 ± 0.5 | 32.3 ± 0.5 | 32.2 ± 0.5 | 32.2 ± 0.5 | 47.4 ± 1.6 | 42.4 ± 0.6 | 37.8 ± 0.6 | 35.5 ± 0.5 | 35 ± 0.5 |
| CCOP(=O)([O-])OCC.CCn1cc[n+](C)c1 [1-ethyl-3-methylimidazolium diethyl phosphate] + CO | – | 26.4 ± 0.4 | 28.9 ± 0.4 | 30.4 ± 0.4 | 31.9 ± 0.5 | 33.5 ± 0.5 | 34.7 ± 0.5 | 35.3 ± 0.5 | 37.2 ± 0.5 | 37.3 ± 0.5 | 37.1 ± 0.5 | – | – | – | – | – |
| CCOP(=O)([O-])OCC.CCn1cc[n+](C)c1 [1-ethyl-3-methylimidazolium diethyl phosphate] + CCO | – | 22.6 ± 0.3 | 23.6 ± 0.4 | 25 ± 0.4 | 26.6 ± 0.4 | 28.2 ± 0.4 | 30.1 ± 0.4 | 31.6 ± 0.5 | 33.2 ± 0.5 | 34.8 ± 0.5 | 37.1 ± 0.5 | – | – | – | – | – |
| CCOP(=O)([O-])OCC.CCn1cc[n+](CC)c1 [1,3-diethyl-1H-imidazol-3-ium diethyl phosphate] + CCO | – | 22.6 ± 0.3 | 23.4 ± 0.4 | 24.6 ± 0.4 | 26.3 ± 0.4 | 27.8 ± 0.4 | 29.6 ± 0.4 | 31.1 ± 0.4 | 32.5 ± 0.5 | 34.1 ± 0.5 | 35.5 ± 0.5 | – | – | – | – | – |
| CO [methanol] + CCCCOP(=O)([O-])OCCCC.CCCCn1cc[n+](C)c1 | 22.4 ± 0.3 | – | – | – | – | – | – | – | – | – | – | – | – | – | – | – |
| CCCCn1cc[n+](CC)c1.CCOP(=O)([O-])OCC [1-butyl-3-ethyl-1H-imidazol-3-ium diethyl phosphate] + CCO | – | 22.6 ± 0.3 | 23.6 ± 0.4 | 24.7 ± 0.4 | 26.1 ± 0.4 | 27.6 ± 0.4 | 28.5 ± 0.4 | 29.5 ± 0.4 | 30.5 ± 0.4 | 31.4 ± 0.4 | 32.2 ± 0.5 | – | – | – | – | – |
| COP(=O)([O-])OC.Cn1cc[n+](C)c1 [1,3-dimethylimidazolium dimethylphosphate] + CCO | – | 23.2 ± 0.4 | 24.5 ± 0.4 | 26.1 ± 0.4 | 28.2 ± 0.4 | 30.5 ± 0.4 | 32.7 ± 0.5 | 35 ± 0.5 | 37.5 ± 0.5 | 41.4 ± 0.6 | 48.4 ± 0.6 | – | – | – | – | – |
| CCOP(=O)([O-])OCC.CCn1cc[n+](C)c1 [1-ethyl-3-methylimidazolium diethyl phosphate] + O | – | 42.6 ± 0.6 | 38.9 ± 0.5 | 38 ± 0.5 | 37.8 ± 0.5 | 37.5 ± 0.5 | 37.4 ± 0.5 | 37.3 ± 0.5 | 37.2 ± 0.5 | 37.3 ± 0.5 | 37.1 ± 0.5 | 49.7 ± 1.4 | 46.5 ± 0.6 | 44.2 ± 0.6 | 41.4 ± 0.6 | 40.7 ± 0.6 |
| CCCCOP(=O)([O-])OCCCC.CCCCn1cc[n+](C)c1 [1-butyl-3-methylimidazolium dibutyl phosphate] + CCO | – | 22.5 ± 0.3 | 23.5 ± 0.4 | 24.5 ± 0.4 | 25.9 ± 0.4 | 26.6 ± 0.4 | 27.3 ± 0.4 | 27.8 ± 0.4 | 28.3 ± 0.4 | 28.8 ± 0.4 | 29.4 ± 0.4 | – | – | – | – | – |
| CCOP(=O)([O-])OCC.CCn1cc[n+](CC)c1 [1,3-diethyl-1H-imidazol-3-ium diethyl phosphate] + CO | – | 26.4 ± 0.4 | 28.6 ± 0.4 | 30.3 ± 0.4 | 31.6 ± 0.5 | 33 ± 0.5 | 34 ± 0.5 | 34.4 ± 0.5 | 36.1 ± 0.5 | 35.9 ± 0.5 | 35.5 ± 0.5 | – | – | – | – | – |
